Patent publication US5714467A, “Antibacterial and antimalarial hybrid peptides” (The Rockefeller University, priority 1993, dated 1998)
Where no end group is shown, it is not given here.

Key:
Bacillus subtilis Bs11 = assay: inhibition zone assay, lethal concentration; assay type: cell-based
Method: (§1) The products of the invention were tested for activity against a variety of test organisms selected to represent a number of different types of pathogens some of them known to be particularly virulent by the inhibition zone assay of Hoffmann et al (1981) Insect Biochem. 11 537-548 which is incorporated herein by reference. Thin agar or agarose plates (8.5 cm diameter) were prepared with 6 ml of rich medium containing 100 ug/ml of streptomycin and 2×10^5 viable cells of a test organism resistant to streptomycin. Wells of […] diameter were punched in the plates and 3 ul of serially diluted samples were placed in the wells. The diameters of the zones of inhibition around the wells were measured after overnight incubation at 30° or 37° C. For each peptide the squares of the zone diameters were plotted against the logarithm of the concentration, and from the slopes and intercepts the lethal concentrations were calculated as described by Hultmark (1983) EMBO J. 2, 571-76 or Hultmark et al (1982) Eur. J. Biochem. 127 207-217 each of which being incorporated herein by reference.
(§2) It was observed during testing that basic peptides often bind to agar plates, but not so much to agarose. Therefore those lethal concentrations determined on agar may, in fact, be substantially higher than the actual lethal concentrations.
(§3) Novel peptides CA(1-8)M(1-18), CA(1-9)M(1-17), CB(1-13)M(1-13), CA(1-17)M(1-9), CA(1-18)M(1-8), M(1-13)CA(1-22) and M(1-13)CA(1-13) were prepared as described above (see Examples 1-6). These novel peptides and CA, CB, and M were tested for activity against a variety of organisms selected to represent a number of different types of pathogens, some of them known to be particularly virulent by the inhibition zone assay of Hoffmann et al (1981), Insect Biochem. 11 537-48. As in Examples 1-6, thin agarose plates were prepared with the respective organisms. The diameters of the zones of inhibition were measured after overnight incubation at 30° C. The lethal concentrations were determined as described above (see Examples 1-6; Hultmark et al articles cited thereat).

Escherichia coli D21 = assay: inhibition zone assay, lethal concentration; assay type: cell-based
Method: as §1, §2, §3

Streptococcus pyogenes = assay: inhibition zone assay, lethal concentration; assay type: cell-based
Method: as §1, §2, §3

[1] = system: Pseudomonas aeruginosa OT97; assay: inhibition zone assay, lethal concentration; assay type: cell-based
Method: as §1, §2, §3

[2] = system: Staphylococcus aureus Cowan I; assay: inhibition zone assay, lethal concentration; assay type: cell-based
Method: as §1, §2, §3

[3] = system: Plasmodium falciparium strain F32 (Tanzania), blood stream forms; assay: inhibition of reinvasion of human red cells by malaria parasite; assay type: cell-based, Plasmodium falciparum; conditions: FIG. 1, blood stream form of Plasmodium falciparium
Method: Hybrid peptides CA(1-13)M(1-13) and CA(1-8)M(1-18) were prepared as described above (see Examples 1-6) and were assayed for activity against the blood stream form of Plasmodium falciparium. For comparison the test included cecropins A and B and the frog skin peptides magainin 2 and PGLa.
The blood stream forms of the malaria parasite Plasmodium falciparium, primarily late trophozoites and early schizonts, were assayed by recording the inhibition of the reinvasion of human red cells by the method of Wahlin, B., et al, (1984) Proc. Nat'l Acad. Sci. USA 81, 7912-16, incorporated herein by reference. Quadruplicate microcultures of strain F32 (Tanzania) were incubated for 20 hrs at 37° C. in a complete tissue culture medium, with or without different concentrations of the peptides to be assayed. After acridine orange staining, the percentage of newly infected red cells was scored in a fluorescence microscope. For each culture 40,000 red cells were analysed for parasitic infection. Duplicate assays were run for CA(1-13)M(1-13).

Sheep Red Cells = assay: lysis of sheep red blood cells (lysis assay or SRC plate assay); assay type: cell-based
Method: These values were obtained by either the lysis assay normally used for melittin or by an adaptation of the antibacterial inhibition zone assay of the above-cited Hultmark et al articles to plates with sheep red cells (SRC). With respect to the latter, sterile agarose plates contained 6 ml of medium With 1% agarose, 0.9% NaCl and 10% SRC suspended in Alsevers solution. A dilution series of peptide was applied in 3 mm wells each loaded with 3 μl of the respective samples. The plates were incubated at 30° C. for 24 h, the zones were recorded and LC values calculated as described in the Hultmark et al articles. Clear zones were recorded after a few hours of incubation and the use of such data gave an LC value of the same order as readings after 24 h. This plate assay is faster and more convenient than the lysis assay normally used for melittin.

[4] = system: Xenorhabdus nematophilis Xn21; assay: inhibition zone assay, lethal concentration; assay type: cell-based; conditions: Table 2, footnote c: incubation overnight at 37° C.
Method: as §1, §2

Candida albicans = assay: inhibition zone assay, lethal concentration; assay type: cell-based; conditions: Table 2, footnote c: incubation overnight at 37° C.
Method: as §1, §2

Bacillus megaterium BM11 = assay: inhibition zone assay, lethal concentration; assay type: cell-based; conditions: Table 2, footnote c: incubation overnight at 37° C.
Method: as §1, §2

Escherichia coli D22 = assay: inhibition zone assay, lethal concentration; assay type: cell-based; conditions: Table 2, footnote c: incubation overnight at 37° C.
Method: as §1, §2

Saccharomyces cerevisiae = assay: inhibition zone assay, lethal concentration; assay type: cell-based; conditions: Table 2, footnote c: incubation overnight at 37° C.
Method: as §1, §2

Micrococcus luteus Ml11 = assay: inhibition zone assay, lethal concentration; assay type: cell-based; conditions: Table 2, footnote c: incubation overnight at 37° C.
Method: as §1, §2

[5] = system: Staphylococcus haemolyticus; assay: inhibition zone assay, lethal concentration; assay type: cell-based; conditions: Table 2, footnote c: incubation overnight at 37° C.
Method: as §1, §2

[6] = Table 2, footnote a: incubation overnight at 30° C. as well as at 37° C.
[7] = Table 3, agarose plates, overnight incubation at 30° C.
[8] = Table 2, footnote b: incubation overnight at 30° C.
[9] = Table 2, footnote c: incubation overnight at 37° C.

“KWKLFKKIEKVGQNIRDGIIKAGPAVAVVGQATQIAK-NH2 [CA(1-37), Cecropin A]” was tested, and the “Lethal concentration, Bacillus subtilis Bs11 (Medium E)” value (Bacillus subtilis Bs11; Table 2, Medium E, footnote c: incubation overnight at 37° C.) was 200 µM, the “Lethal concentration, Bacillus subtilis Bs11” value (Bacillus subtilis Bs11; [6]) was 4 µM and the “Lethal concentration, Bs11 = B. subtilis” value (Bacillus subtilis Bs11; [7]) was 4 µM. For the same substance, the “Lethal concentration, Bs11 + ME = B. subtilis, plates prepared with medium E” value (Bacillus subtilis Bs11; Table 3, medium E, agarose plates, overnight incubation at 30° C.) was 200 µM, the “Lethal concentration, Escherichia coli D21” value (Escherichia coli D21; [6]) was 0.2 µM and the “Lethal concentration, D21 = E. coli” value (Escherichia coli D21; [7]) was 0.2 µM. For the same substance, the “Lethal concentration, Streptococcus pyogenes” value (Streptococcus pyogenes; [8]) was 4 µM, the “Lethal concentration, Streptococcus pyogenes” value (Streptococcus pyogenes; [9]) was 6 µM and the “Lethal concentration, Strep = S. pyogenes” value (Streptococcus pyogenes; [7]) was 4 µM. The “Lethal concentration, Pseudomonas aeruginosa OT97” value [1, 8] was 2 µM, the “Lethal concentration, Pseudomonas aeruginosa OT97” value [1, 9] was 1.6 µM and the “Lethal concentration, OT97 = P. aeruginosa” value [1, 7] was 2 µM. For the same substance, the “Lethal concentration, Staphylococcus aureus Cowan I” value [2, 6] was > 200 µM, the “Lethal concentration, Staph = S. aureus Cowan I” value [2, 7] was 200 µM and the “antimalarial potency in words” value [3] was “negligible activity”. The “Lethal concentration, Sheep Red Cells” value (Sheep Red Cells; [6]) was > 200 µM, the “Lethal concentration, SRC = Sheep Red Cells” value (Sheep Red Cells; Table 3) was 200 µM and the “Lethal concentration, Xenorhabdus nematophilis Xn21” value [4] was 2 µM. For the same substance, the “Lethal concentration, Candida albicans” value (Candida albicans) was > 200 µM, the “Lethal concentration, Bacillus megaterium BM11” value (Bacillus megaterium BM11) was 1 µM and the “Lethal concentration, Escherichia coli D22” value (Escherichia coli D22) was 0.5 µM. The “Lethal concentration, Saccharomyces cerevisiae” value (Saccharomyces cerevisiae) was 60 µM, the “Lethal concentration, Micrococcus luteus Ml11” value (Micrococcus luteus Ml11) was 1 µM and the “Lethal concentration, Staphylococcus haemolyticus” value [5] was 3 µM.
